Source: ChEMBL document CHEMBL1139325, “Discovery of targeting ligands for breast cancer cells using the one-bead one-compound combinatorial method” (J Med Chem, 2009)
Activity calls are given as the source filed them. No cut-off for these calls is given here.

How the values were obtained:
Type in all cases: cell-based
[1] = target: T1, Integrin alpha-6 (Homo sapiens) (UniProt P23229); assay: Binding affinity to integrin alpha6 expressed in human K562 cells at 1 uM for 30 mins by flow cytometry
T1 sequence (whole entry): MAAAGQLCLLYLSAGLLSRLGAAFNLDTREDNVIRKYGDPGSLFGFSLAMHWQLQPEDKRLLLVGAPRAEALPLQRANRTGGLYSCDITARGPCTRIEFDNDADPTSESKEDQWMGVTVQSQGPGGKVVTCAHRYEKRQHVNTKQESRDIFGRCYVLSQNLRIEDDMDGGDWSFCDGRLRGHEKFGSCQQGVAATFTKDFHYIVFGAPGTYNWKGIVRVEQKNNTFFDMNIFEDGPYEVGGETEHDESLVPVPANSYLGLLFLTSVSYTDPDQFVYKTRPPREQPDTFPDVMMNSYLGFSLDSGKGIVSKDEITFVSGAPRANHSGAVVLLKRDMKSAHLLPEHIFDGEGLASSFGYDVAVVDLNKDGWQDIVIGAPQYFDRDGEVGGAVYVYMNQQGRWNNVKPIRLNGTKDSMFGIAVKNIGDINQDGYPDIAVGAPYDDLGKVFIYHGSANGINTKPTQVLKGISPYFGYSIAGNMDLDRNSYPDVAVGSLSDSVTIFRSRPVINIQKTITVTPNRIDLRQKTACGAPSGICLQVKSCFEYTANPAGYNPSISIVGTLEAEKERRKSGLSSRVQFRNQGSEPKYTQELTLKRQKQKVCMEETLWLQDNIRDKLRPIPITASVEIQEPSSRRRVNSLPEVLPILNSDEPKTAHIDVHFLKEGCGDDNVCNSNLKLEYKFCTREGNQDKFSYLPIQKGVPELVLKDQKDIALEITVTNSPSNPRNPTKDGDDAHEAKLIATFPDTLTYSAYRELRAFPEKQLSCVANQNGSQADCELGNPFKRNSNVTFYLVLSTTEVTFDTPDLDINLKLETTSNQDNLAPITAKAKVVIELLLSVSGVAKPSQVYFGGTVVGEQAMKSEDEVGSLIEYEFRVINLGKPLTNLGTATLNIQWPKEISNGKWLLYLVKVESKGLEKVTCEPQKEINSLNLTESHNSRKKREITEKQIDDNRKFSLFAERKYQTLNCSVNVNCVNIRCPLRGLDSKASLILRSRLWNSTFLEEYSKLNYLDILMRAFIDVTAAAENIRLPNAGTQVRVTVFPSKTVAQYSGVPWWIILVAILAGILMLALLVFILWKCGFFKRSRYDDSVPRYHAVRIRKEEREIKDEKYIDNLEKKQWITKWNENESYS

K562 [2] = assay: Decrease in binding affinity to integrin alpha3 G163A mutant expressed in human K562 cells by flow cytometry
K562 [3] = assay: Decrease in binding affinity to integrin alpha3 D15A mutant expressed in human K562 cells by flow cytometry
K562 [4] = assay: Decrease in binding affinity to integrin alpha3 T162A mutant expressed in human K562 cells by flow cytometry
K562 [5] = assay: Decrease in binding affinity to integrin alpha3 T162F mutant expressed in human K562 cells by flow cytometry
K562 [6] = assay: Decrease in binding affinity to integrin alpha3 M164A mutant expressed in human K562 cells by flow cytometry
[7] = target: Integrin alpha-4 (Homo sapiens) (UniProt P13612); assay: Binding affinity to integrin alpha4 expressed in human K562 cells at 1 uM for 30 mins by flow cytometry
[8] = target: Integrin alpha-1 (Homo sapiens) (UniProt P56199); assay: Binding affinity to integrin alpha1 expressed in human K562 cells at 1 uM for 30 mins by flow cytometry
[9] = target: Integrin alpha-5 (Homo sapiens) (UniProt P08648); assay: Binding affinity to integrin alpha5 in human K562 cells at 1 uM for 30 mins by flow cytometry
[10] = target: Integrin alpha-V/beta-3 (Homo sapiens) (UniProt P05106+P06756); assay: Binding affinity to integrin alphaVbeta3 expressed in human K562 cells at 1 uM for 30 mins by flow cytometry
[11] = target: T2, Integrin alpha-9 (Homo sapiens) (UniProt Q13797); assay: Binding affinity to integrin alpha9 expressed in human K562 cells at 1 uM for 30 mins by flow cytometry
T2 sequence (whole entry): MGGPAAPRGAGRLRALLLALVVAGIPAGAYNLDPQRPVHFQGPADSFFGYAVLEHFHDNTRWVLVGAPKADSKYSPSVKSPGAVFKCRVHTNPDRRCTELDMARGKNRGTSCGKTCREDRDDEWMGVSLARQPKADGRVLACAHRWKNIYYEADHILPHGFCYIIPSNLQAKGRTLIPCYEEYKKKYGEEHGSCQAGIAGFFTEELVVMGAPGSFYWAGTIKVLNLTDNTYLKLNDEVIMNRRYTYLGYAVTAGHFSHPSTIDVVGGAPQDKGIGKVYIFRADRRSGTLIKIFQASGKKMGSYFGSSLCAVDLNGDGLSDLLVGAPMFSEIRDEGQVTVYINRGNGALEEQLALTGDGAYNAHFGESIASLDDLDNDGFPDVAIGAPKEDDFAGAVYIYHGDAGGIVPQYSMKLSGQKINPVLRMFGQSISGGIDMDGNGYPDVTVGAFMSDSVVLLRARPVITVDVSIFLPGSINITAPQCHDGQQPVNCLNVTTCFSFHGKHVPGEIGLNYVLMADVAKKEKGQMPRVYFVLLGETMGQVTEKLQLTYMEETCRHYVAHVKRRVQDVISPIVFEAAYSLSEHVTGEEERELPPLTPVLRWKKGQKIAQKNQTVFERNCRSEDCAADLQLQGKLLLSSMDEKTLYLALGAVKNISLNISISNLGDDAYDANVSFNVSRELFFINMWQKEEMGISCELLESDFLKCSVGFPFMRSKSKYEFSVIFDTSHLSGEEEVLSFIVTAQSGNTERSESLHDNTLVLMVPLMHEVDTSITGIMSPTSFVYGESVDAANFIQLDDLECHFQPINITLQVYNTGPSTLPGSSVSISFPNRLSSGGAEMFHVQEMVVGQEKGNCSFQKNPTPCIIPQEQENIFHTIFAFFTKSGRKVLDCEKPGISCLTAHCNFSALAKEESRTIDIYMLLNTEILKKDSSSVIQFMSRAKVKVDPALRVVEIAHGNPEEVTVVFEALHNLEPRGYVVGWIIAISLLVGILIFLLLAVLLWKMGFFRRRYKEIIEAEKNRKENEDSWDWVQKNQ

[12] = target: Integrin alpha-2 (Homo sapiens) (UniProt P17301); assay: Binding affinity to integrin alpha2 expressed in human K562 cells at 1 uM for 30 mins by flow cytometry
K562 [13] = assay: Decrease in binding affinity to integrin alpha3 Y186A mutant expressed in human K562 cells by flow cytometry

Chain of Integrin alpha-5 (Homo sapiens) (P08648 42-894 limits assumed): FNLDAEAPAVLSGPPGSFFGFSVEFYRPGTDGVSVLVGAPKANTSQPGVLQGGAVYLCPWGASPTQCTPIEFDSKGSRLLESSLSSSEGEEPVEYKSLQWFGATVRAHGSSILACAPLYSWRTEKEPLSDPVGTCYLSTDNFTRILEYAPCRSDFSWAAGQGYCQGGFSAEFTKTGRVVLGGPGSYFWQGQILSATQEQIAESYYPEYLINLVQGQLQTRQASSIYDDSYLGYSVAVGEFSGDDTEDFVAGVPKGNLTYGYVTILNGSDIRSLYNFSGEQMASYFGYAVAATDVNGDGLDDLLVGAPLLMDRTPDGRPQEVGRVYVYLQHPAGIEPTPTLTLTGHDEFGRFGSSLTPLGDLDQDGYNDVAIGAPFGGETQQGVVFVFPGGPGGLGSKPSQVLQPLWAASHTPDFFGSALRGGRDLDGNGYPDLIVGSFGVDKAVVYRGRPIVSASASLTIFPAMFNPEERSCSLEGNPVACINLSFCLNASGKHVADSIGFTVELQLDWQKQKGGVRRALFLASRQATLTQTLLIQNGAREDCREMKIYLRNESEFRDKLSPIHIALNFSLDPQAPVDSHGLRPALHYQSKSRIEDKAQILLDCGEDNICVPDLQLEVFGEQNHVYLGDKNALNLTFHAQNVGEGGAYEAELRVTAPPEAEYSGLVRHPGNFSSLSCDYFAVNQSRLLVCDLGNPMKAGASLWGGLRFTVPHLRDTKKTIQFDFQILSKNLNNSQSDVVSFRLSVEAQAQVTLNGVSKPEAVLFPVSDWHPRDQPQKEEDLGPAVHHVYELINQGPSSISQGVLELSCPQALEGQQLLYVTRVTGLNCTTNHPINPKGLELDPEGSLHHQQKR
Chain of Integrin alpha-5 (Homo sapiens) (P08648 895-1049 limits assumed): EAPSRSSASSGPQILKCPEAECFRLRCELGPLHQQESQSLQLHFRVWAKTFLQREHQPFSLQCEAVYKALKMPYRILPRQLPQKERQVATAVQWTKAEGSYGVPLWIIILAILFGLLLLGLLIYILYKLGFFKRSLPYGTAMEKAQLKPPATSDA
Chain of Integrin alpha-2 (Homo sapiens) (P17301 whole entry): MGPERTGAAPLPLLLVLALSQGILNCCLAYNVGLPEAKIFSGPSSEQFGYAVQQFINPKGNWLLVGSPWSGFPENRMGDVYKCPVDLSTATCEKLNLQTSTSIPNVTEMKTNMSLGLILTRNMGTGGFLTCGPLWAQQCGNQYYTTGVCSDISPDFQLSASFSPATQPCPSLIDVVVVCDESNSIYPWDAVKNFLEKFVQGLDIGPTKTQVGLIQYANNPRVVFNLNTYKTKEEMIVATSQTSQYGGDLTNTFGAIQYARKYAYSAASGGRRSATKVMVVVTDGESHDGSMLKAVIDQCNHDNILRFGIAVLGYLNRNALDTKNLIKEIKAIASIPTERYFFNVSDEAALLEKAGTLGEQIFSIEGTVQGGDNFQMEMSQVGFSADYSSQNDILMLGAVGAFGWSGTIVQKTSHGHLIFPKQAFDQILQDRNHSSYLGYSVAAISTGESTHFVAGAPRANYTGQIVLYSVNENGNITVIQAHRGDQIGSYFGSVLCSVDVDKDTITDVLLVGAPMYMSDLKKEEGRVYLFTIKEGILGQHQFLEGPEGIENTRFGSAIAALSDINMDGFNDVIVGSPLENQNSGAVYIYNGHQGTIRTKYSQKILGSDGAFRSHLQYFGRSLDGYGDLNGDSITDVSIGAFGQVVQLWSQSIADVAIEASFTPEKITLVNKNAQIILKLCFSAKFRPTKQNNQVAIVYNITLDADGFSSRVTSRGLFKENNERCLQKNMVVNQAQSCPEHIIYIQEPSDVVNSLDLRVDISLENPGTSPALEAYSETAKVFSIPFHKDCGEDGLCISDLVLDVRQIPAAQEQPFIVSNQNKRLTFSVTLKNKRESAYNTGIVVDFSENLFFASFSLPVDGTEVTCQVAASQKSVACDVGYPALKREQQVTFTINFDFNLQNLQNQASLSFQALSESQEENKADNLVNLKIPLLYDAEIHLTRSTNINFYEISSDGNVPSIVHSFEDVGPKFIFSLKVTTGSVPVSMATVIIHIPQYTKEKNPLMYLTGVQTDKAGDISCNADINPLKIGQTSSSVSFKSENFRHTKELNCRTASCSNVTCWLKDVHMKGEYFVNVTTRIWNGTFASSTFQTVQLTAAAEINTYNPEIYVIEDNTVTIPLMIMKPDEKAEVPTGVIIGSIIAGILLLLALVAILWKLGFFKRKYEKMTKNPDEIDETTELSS
Chain of Integrin alpha-4 (Homo sapiens) (P13612 whole entry): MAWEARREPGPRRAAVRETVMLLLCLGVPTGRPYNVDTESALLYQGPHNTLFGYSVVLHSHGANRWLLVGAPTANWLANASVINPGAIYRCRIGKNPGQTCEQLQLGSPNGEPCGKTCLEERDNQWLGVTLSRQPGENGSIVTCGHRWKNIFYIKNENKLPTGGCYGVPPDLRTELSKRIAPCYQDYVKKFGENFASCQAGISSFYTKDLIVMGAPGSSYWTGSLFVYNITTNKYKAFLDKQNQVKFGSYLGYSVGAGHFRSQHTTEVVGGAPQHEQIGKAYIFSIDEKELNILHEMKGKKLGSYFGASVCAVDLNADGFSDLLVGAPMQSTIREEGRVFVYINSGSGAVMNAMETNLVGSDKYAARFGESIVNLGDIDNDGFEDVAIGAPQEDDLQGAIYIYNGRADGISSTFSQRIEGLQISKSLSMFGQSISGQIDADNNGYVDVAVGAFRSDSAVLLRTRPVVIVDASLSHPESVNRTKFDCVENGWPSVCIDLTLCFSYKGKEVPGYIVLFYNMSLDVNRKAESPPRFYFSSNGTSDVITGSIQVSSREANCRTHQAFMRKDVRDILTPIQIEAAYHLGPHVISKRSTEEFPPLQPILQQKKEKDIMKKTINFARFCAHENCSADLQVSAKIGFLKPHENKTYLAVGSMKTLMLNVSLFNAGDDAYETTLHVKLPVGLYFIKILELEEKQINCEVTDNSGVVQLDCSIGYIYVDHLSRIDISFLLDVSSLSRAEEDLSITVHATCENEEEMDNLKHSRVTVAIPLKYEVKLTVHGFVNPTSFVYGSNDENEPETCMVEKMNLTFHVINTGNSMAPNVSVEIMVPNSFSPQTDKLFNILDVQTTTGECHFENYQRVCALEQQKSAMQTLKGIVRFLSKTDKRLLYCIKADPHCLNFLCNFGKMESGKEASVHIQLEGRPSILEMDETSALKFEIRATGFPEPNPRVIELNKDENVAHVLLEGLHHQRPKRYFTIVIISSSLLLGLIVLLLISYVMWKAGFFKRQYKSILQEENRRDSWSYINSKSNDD
Chain of Integrin alpha-1 (Homo sapiens) (P56199 whole entry): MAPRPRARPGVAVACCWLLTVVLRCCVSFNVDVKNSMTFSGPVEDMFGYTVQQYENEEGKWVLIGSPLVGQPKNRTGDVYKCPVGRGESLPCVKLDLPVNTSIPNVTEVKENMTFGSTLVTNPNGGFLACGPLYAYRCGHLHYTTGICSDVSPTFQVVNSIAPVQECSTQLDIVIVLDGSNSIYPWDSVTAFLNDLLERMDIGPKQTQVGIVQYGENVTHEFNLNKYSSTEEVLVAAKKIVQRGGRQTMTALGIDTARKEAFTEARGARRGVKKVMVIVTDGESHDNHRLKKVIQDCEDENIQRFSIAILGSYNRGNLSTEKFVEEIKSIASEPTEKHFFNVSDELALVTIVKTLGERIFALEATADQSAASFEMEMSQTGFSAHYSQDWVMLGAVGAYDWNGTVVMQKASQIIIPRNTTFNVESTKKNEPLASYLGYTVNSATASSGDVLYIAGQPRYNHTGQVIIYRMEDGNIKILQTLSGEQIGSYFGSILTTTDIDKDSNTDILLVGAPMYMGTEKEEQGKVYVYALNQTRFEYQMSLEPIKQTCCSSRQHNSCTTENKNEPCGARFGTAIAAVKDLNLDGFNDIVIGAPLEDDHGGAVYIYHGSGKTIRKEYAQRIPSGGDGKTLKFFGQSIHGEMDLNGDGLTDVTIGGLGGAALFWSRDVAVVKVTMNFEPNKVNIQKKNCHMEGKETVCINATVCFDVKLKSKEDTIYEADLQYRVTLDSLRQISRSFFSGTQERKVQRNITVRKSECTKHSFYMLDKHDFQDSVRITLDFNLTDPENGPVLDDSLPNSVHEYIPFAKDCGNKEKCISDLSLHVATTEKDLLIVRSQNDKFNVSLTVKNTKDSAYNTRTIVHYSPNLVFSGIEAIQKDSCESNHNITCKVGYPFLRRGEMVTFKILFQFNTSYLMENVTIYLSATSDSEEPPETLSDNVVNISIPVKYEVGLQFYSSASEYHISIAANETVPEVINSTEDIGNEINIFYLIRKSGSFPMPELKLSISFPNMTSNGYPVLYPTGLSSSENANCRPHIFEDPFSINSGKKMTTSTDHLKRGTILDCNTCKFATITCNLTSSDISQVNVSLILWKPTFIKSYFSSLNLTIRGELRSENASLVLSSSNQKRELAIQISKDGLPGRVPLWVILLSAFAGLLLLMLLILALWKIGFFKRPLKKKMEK

- Activity [1]: inactive
- Activity [7]: inactive
- Activity [8]: inactive
- Activity [9]: inactive
- Activity [10]: inactive
- Activity [11]: inactive
- Activity [12]: inactive
SMILES: CC(C)C[C@@H]1NC(=O)CNC(=O)[C@@H](CC(=O)O)NC(=O)[C@@H](N)CSSC[C@@H](C(N)=O)NC(=O)[C@H](CC(N)=O)NC(=O)[C@@H]2C[C@@H](O)CN2C(=O)CNC1=O
- Activity (K562 [2]): inactive
- Activity (K562 [3]): inactive
- Activity (K562 [4]): inactive
- Activity (K562 [5]): inactive
- Activity (K562 [6]): inactive
- Activity (K562 [13]): inactive
